This is an account of results in patent publication US12605358B2, “Composition for preventing or treating nervous system diseases comprising compound that inhibits mTOR signaling pathway as active ingredient” (ALIAD BIOPHARMA, priority 2021, dated 2026).

For assay [1], the system named is 5xFAD transgenic mice. The experiment in a line: Neurogenesis (Sox2/DCX/NeuN staining). It is filed as in vivo. To be noted: 10 to 20 mg/kg; compared to the WT normal group; FIG. 17. How it is done: 5xFAD animals were administered with HN-1703 at three doses for 14 days to male heterozygotes aged 6 months (all born within 3 days). The behaviors of mice were measured in a dark cycle in which the mice were active while alternating light and dark in a 12-hour cycle in a breeding room chamber, and the mice were freely accessible to food and water and bred in compliance with experimental animal ethical guidelines of Kyung Hee University. In each group, the HN-1703 was intraperitoneally injected at the same time once a day in a volume of 100 μl to 12 mice in a normal group (wild type littermate), 9 5xFAD mice in a vehicle (DMSO administration), 8 5xFAD mice in a 5 mg/kg administered group, 9 5xFAD mice in a 10 mg/kg administered group, and 9 5xFAD mice in a 20 mg/kg administered group. […] Behavioral measures were measured in Y-maze, Morris Water Maze, and Passive Avoidance test for 18 days in sequence. […]
FIG. 17 illustrates confocal scanning micrographs of a subgranular zone region of the hippocampal dentate gyrus after triple staining with an NeuN antibody as a neuron marker, an Sox2 antibody as a type1 neural progenitor cell marker, and a DCX antibody as a differentiating and migrating type3 neural precursor cell marker, and quantifying the number of Sox2+/NeuN+ cells and the number of DCX+/NeuN+ cells.

The next assay has as its target T1, mTORC2 (Homo sapiens, UniProt P42345).
T1 construct: endogenous in cells; host or cells: HeLa
The experiment in a line: mTORC2 inhibition, immunoblot of AKT Ser473 phosphorylation in HeLa cells. To be noted: at 40 µM, FIG. 2A. It counts as cell-based. Here is the method:
HeLa cells were cultured in DMEM (Dulbesco's Modified Eagles Media) containing 10% FBS, penicillin (100 units/ml), and streptomycin (100 μg/ml) at 37° C. in a 5% CO2 incubator. Culture was started by seeding 4×10^5 cells in a 100 mm culture dish, and subcultured every 3 days.
Immunoblot analysis was performed by the following method. SDS-PAGE-developed proteins were electroblotted and transferred and a PVDF membrane was blocked by shaking for 1 hour in a TBS-T buffer (20 mM Tris, 137 mM NaCl, 0.1% Tween 20) containing 5% skim milk. The membrane was repeatedly washed with a TBS-T buffer three times for 5 minutes, and reacted with a first antibody diluted in a TBS-T buffer containing 5% skim milk or 5% BSA overnight at 4° C. Thereafter, the membrane was repeatedly washed with a TBS-T buffer three times for 5 minutes, and reacted with a second antibody diluted in a TBS-T buffer containing 5% skim milk for 30 minutes at room temperature. The membrane was repeatedly washed with a TBS-T buffer containing 5% skim milk five times for 5 minutes, and then protein bands bound to the second antibody were detected by a chemiluminescence method. […]
(In general: In western blotting, separated proteins are transferred to a membrane and probed.)

In assay [2] the test system is 5xFAD transgenic mice. Put plainly: Senile plaques removal, Thioflavin-S staining of brain slices. It is filed as in vivo. How it is done:
5xFAD animals were administered with HN-1703 at three doses for 14 days to male heterozygotes aged 6 months (all born within 3 days). The behaviors of mice were measured in a dark cycle in which the mice were active while alternating light and dark in a 12-hour cycle in a breeding room chamber, and the mice were freely accessible to food and water and bred in compliance with experimental animal ethical guidelines of Kyung Hee University. In each group, the HN-1703 was intraperitoneally injected at the same time once a day in a volume of 100 μl to 12 mice in a normal group (wild type littermate), 9 5xFAD mice in a vehicle (DMSO administration), 8 5xFAD mice in a 5 mg/kg administered group, 9 5xFAD mice in a 10 mg/kg administered group, and 9 5xFAD mice in a 20 mg/kg administered group. […] In a behavioral measurement room, humidity (40 to 60%) and temperature (22 to 26° C.) were maintained, and reflected light was maintained to avoid sound and light effects. Behavioral measures were measured in Y-maze, Morris Water Maze, and Passive Avoidance test for 18 days in sequence.
A brain slice immunostaining method was modified and used as described in Heo H et al. (J Ethnopharmacol, 2009). Mice were transcardially perfused with 4% PFA. After being immersed and fixed in 4% PFA for 4 hours, the brain tissue was unfrozen in 30% sucrose, frozen in an optimal cutting temperature (OCT) mixture, and stored at −80° C. Brain tissue slices were sectioned in a coronal direction at a thickness of 35 μm. The brain tissue slices were immersed in a storage solution (30% glycerol, 30% ethylene glycol, PBS) and stored at 4° C. The stored brain slices were permeabilized in 0.5% Triton X-100 for 20 minutes and shaken in 2 N HCl for 30 minutes at 37° C. Then, the brain slices were blocked in a free-floating state for 2 hours in 15% standard serum, 3% bovine serum albumin (BSA, bio-WORLD, Dublin, OH, USA) and 0.1% Triton X-100. The slices were shaken with a first antibody for 16 hours at 4° C. Thereafter, a second antibody complementary to the first antibody was attached at room temperature (22±1° C.) for 45 minutes. Then, the nuclei were washed with physiological saline (PBS) containing 1 μg/ml PI (propidiumiodide, Sigma) or DAPI (1:4000), and then placed on a slide glass and sealed using an aqueous mount, and observed under a confocal scanning microscope for tissue observation (LSM 810 Carl Zeiss, Oberkochen, Germany).
Brain slices segmented in a coronal direction were selected from the front to the back of the brain by one slice every 5 slices, and 5 to 11 slices for each animal's brain were co-stained with thioflavin-S and DAPI.
FIG. 7 is confocal scanning micrographs of the hippocampal dentate gyrus, and the entorhinal cortex and temporal lobe of the cerebral cortex, after staining senile plaques by treating the brain slice with Thioflavin-S, and FIG. 8 illustrates quantifying the entire area and staining intensity of the senile plaques stained with Thioflavin-S.

Setting [3] is: compared to the 5xFAD-DMSO control group, FIG. 8.

The structures appear in SMILES notation.

For `COc1cc(OC)c2c(=O)c3cc4c(cc3oc2c1)OCO4` [HN-1703, 7,9-dimethoxy-10H-[1,3]dioxolo[4,5-b]xanthen-10-one], in the assay on 5xFAD transgenic mice [1], the “DCX+ neural progenitor cells” value is recorded as “twice or more” and the “Sox2+ neural progenitor cells” value is “more Sox2+ neural progenitor cells were observed”. The “inhibition of mTORC2 activity (AKT Ser473 phosphorylation) compared to the control group” value at mTORC2 is given as 55%. Besides, the “reduction of senile plaques compared to the 5xFAD-DMSO group” value in the assay on 5xFAD transgenic mice [2] (20 mg/kg, dentate gyrus, FIG. 7) was at least 70%. Further, in the assay with 5xFAD transgenic mice [2] (5 to 20 mg/kg, hippocampal dentate gyrus, entorhinal cortex, temporal lobe, FIG. 7), the “senile plaques stained with Thioflavin-S” value is “reduced in a dose-dependent manner”. For the same compound, in the assay with 5xFAD transgenic mice [2] (all brain regions tested, compared to the 5xFAD-DMSO control group, FIG. 8), the “number of senile plaques having sizes of 10 to 20 μm and 20 μm or more” value is given as “decreased in a dose-dependent manner”. Further, in the assay with 5xFAD transgenic mice [2] (setting [3]), the “entire area of senile plaques” value is reported as “decreased in a dose-dependent manner” and the “staining intensity of senile plaques” value is “decreased in a dose-dependent manner”.
